Columns and labels:
[1] = biological target: T1, human vanilloid receptor 1 (hVR1) ion channels (Homo sapiens, UniProt Q8NER1); assay: Fluorescence assay (calcium-sensitive dye) in CHO cells expressing human vanilloid receptor 1 ion channels, stimulated by capsaicin or low pH; type: cell-based; details: in vitro, VR1 ion channel block
T1 construct: expressed in transfected cells; host or cells: CHO cells
Method: Fluorescence assay: Cultures of Chinese Hamster Ovary (CHO) cells expressing human vanilloid receptor 1 ion channels are prepared according to standard protocols [McIntyre et al., British Journal of Pharmacology 132: 1084-1094 (2001)]. The activity of test compounds are investigated using a fluorescence assay utilising calcium sensitive dyes to measure changes in [Ca^2+]i. The cells are plated at a density of 25,000 per well on 96 well Costar black, clear bottomed plates cultured at 37° C. in 5% CO2 in MEM medium overnight. On the day of the assay, cells are incubated in either 2 μM fura-2/AM or 2 μM fura-6F (Molecular Probes) made up in assay buffer [Hank's Balanced Salt Solution (HBSS, Invitrogen) containing 10 mM N-2-(hydroxyethylpiperazine-N′-[2-ethanesulfonic acid) (HEPES), pH 7.4] containing 0.01% pluronic F-127 for 30 min at room temperature. […] The fluorescence is measured over 1 min at 4 s intervals using excitation wavelengths of 340 and 380 nm and emission of 520 nm. […] The ratio of fluorescence intensities following excitation at 340 and 380 nm is calculated for each time point. The agonist-evoked response is calculated as the mean of the ratios in the four time-points following stimulation minus the basal ratio.

[2] = biological target: rat VR1 (Rattus norvegicus, UniProt O35433); assay: Fluorescence assay, rat VR1; type: cell-based; details: in vitro, VR1 ion channel block
Sequence of rat VR1 (O35433 whole entry): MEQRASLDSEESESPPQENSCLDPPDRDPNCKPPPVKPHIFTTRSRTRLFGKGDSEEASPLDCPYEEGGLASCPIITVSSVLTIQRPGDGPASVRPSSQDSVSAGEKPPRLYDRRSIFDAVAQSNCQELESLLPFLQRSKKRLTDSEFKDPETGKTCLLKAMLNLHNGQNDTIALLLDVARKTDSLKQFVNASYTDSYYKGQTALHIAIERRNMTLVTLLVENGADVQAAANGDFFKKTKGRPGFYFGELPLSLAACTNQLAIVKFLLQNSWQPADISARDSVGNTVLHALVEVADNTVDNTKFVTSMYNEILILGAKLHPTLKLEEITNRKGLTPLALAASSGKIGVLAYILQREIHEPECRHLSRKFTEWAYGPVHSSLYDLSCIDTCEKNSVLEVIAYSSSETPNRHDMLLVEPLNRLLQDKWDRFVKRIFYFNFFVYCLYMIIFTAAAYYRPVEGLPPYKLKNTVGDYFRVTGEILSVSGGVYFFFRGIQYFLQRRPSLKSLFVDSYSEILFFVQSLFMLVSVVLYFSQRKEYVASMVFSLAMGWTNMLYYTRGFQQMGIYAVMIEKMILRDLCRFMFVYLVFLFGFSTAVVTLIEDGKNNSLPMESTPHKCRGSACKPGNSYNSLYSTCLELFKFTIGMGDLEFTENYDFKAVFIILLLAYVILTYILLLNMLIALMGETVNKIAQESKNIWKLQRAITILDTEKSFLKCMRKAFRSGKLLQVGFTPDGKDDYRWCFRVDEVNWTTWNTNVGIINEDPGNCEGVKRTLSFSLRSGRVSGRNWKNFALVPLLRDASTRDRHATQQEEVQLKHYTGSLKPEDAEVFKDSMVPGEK

[3] = tested on: rat model of neuropathic pain; assay: Anti-hyperalgesic effects in a model of neuropathic pain in the rat (partial sciatic nerve ligation, paw pressure); type: in vivo; details: single dose 0.3-30 mg/kg p.o. after establishment of hyperalgesia
Method: Test: Anti-Hyperalgesic Effects in a Model of Neuropathic Pain in the Rat
The agents of invention are potent and efficacious anti-hyperalgesic agents following oral administration in the following rat model of neuropathic pain. Peripheral neuropathy is induced by partial ligation of the left sciatic nerve. Mechanical hyperalgesia is assessed from paw withdrawal thresholds measured on the ipsilateral (ligated) and contralateral (non-ligated) hindpaws using standard paw pressure methods. Drug effects are studied 11-15 days post ligation. The mean paw withdrawal threshold±s.e.m. for the left (ligated) paw is compared to that of the right (non-ligated) paw.
The agents of invention are administered, e.g. orally in 20% cremophor/water in a volume of 1 ml. The post-drug percentage hyperalgesia values are obtained by comparison to the pre-drug value for the right (non-ligated) paw; this enables a true measure of the reduction in hyperalgesia to be obtained without the added complication of any drug effects on the right paw. […] The agents of invention produce a reversal of mechanical hyperalgesia at 0.1-100 mg/kg and show a rapid onset of activity with a long duration of action.

T1 sequence (Q8NER1 whole entry): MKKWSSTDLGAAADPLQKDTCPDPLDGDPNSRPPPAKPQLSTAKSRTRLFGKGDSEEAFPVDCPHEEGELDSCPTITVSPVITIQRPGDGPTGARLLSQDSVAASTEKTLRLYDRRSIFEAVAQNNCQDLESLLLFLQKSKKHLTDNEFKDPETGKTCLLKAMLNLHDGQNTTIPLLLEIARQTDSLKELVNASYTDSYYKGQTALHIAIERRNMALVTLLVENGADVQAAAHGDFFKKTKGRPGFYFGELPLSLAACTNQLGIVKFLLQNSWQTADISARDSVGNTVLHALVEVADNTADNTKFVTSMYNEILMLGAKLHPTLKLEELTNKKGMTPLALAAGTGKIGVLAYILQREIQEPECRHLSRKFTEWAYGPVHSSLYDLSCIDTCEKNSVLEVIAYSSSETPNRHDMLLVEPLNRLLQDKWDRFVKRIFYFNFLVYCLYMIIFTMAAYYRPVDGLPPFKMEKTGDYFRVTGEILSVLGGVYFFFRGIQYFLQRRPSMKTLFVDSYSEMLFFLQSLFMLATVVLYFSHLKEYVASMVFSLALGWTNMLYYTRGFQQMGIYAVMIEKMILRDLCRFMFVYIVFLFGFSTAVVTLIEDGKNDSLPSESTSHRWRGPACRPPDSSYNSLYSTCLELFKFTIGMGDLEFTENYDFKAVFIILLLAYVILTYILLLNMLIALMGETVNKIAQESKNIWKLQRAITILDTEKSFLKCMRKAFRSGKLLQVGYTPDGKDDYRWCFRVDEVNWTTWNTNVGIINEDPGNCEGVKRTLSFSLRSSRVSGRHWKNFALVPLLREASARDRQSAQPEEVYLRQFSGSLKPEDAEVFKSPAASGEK

For `CC(C)(C)c1nc2[nH]c(=S)[nH]c(=O)c2cc1-c1ccc(Cl)cc1` [Example 2, 7-.tert.-butyl-6-(4-chlorophenyl)-2-thioxo-2,3-dihydro-1.H.-pyrido[2,3-.d.]pyrimidin-4-one], the IC50 [1] was 65.1 nM, the IC50 [2] was 19.2 nM and the “duration of effect on paw withdrawal thresholds” value [3] was “at least 6 h”. The “effect on paw withdrawal thresholds” value [3] was “dose-dependently reduces paw withdrawal thresholds”.

Reference: patent publication US7915264B2, “Fused pyridine derivatives for use as vanilloid receptor antagonists for treating pain” (Novartis AG, priority 2001, dated 2011)
